Results: patent US10772326B2 (priority 2014, dated 2020)
Read-outs that look alike come from different tables or passages of the source.

Key:
[1] = test system: E. coli Stratagene strain “Solopack”; assay: Disc test of essential oils on E. coli growth on LB agar; type: cell-based; settings: 20 μl undiluted on 6 mm disc, 24 hrs
Protocol: The essential oils cinnamadehyde (Aldrich, W228605; ≥98% purity), carvacrol (Aldrich, W224502; ≥98% purity) and geraniol (Aldrich, 163333; 98% purity) were purchased Sigma-Aldrich (St. Louis, Mo.). A single colony of E. coli Stratagene strain “Solopack” was inoculated in 5 ml of Luria Broth (LB) liquid medium with shaking at 37° C. overnight. Two hundred μl of the E. coli overnight cultures were placed on an LB agar plate, and spread evenly with glass beads. The bacterial culture was allowed to absorb into the LB medium. Within 30 min after absorption, 20 μl drops of the three essential oils (cinnamaldehyde, carvacrol or geraniol) were separately placed without dilution on 6 mm discs (Whatman, Cat No. 2017-006; GE healthcare Life Science) and the treated disks were placed on top of the plates with E. coli. The plates were then incubated for 24 hrs. […] Experiments were repeated, with the same results.

[2] = test system: L. crescens strain BT-1 (Lcr); type: cell-based, Liberibacter crescens; settings: 5 days; for inhibition of the growth of Lcr: 20 μl on 6 mm disc
[3] = test system: Swingle rootstocks and sweet orange; assay: Phytotoxicity of foliar spray or leaf painting on citrus; type: in vivo; settings: spray to run-off or leaf painting
Excerpt: To test the phytoxicity of cinnamaldehyde or carvacrol in 70% ethanol, and 70% ethanol alone on citrus plants, we applied 1% (w/v) and 10% (w/v) cinnamaldehyde or carvacrol (each dissolved in 70% ethanol) on Swingle rootstocks (˜6 inches to 1 foot tall) by spraying to the point of run-off of the spray and also sweet orange (˜3 foot tall) by painting one or both sides of a portion of the leaf surface. We also applied 70% ethanol as control in these two methods.

[4] = test system: Swingle rootstocks; assay: Phytotoxicity of soil drench on potted citrus; type: in vivo; settings: drench to run-off
Excerpt: To further test the phytoxicity of cinnamaldehyde or carvacrol in 70% ethanol, and 70% ethanol alone on citrus plants, we applied 1% and 10% cinnamaldehyde or carvacrol (each dissolved in 70% ethanol) on Swingle rootstocks (˜6 inches to 1 foot tall) by adding sufficient liquid to soil of potted citrus to the point of run-off of the drench. We also applied 70% ethanol as control in these two methods.

[5] = test system: Las; type: in vivo, Candidatus Liberibacter asiaticus; settings: 1% (w/v) in 70% ethanol, foliar spray to run-off; 1-2 weeks later and for several months; positive = Ct ≤ 35
[6] = test system: Las; settings: spray to run-off
[7] = test system: Las; settings: 1.5% (w/v) in 100% DMSO
[8] = 1% in 70% ethanol (carvacrol: 8 mg/ml (1%))

| SMILES | inhibition of the growth of E. coli [1] | relative inhibition of the growth of E. coli (ranking) [1] | inhibition of the growth of Lcr ([2]; 2 mg/ml in 70% ethanol) | phytotoxicity, foliar ([3]; 1% (w/v) in 70% ethanol) | phytotoxicity, soil drench [4, 8] | level down to which inhibitory to Lcr ([2]; two-fold serial dilutions in 70% ethanol, disc test) [mg/mL] | phytotoxicity, foliar ([3]; 10% w/v in 70% ethanol) | phytotoxicity, soil drench ([4]; 10% w/v in 70% ethanol) | Las qPCR tests after treatment [5] | PCR tests for presence of Las ([6]; 0.3% in 50% DMSO) | effect on the trees (defoliation) ([6]; 0.3% in 50% DMSO) | weekly qPCR tests for Las for the next nine months ([6]; 1.5% in 50% DMSO) | effect on the trees (defoliation) ([6]; 1.5% in 50% DMSO, 6-7 days later) | PCR tests for presence of Las in new shoots ([6]; 1.5% in 50% DMSO, about 3 weeks after defoliation) | effect on the trees (defoliation) ([7]; 2 x 20 ml trunk injection, 6-7 days later) | PCR tests for presence of Las in new shoots ([7]; trunk injection) | weekly PCR tests for Las for the next 9 months ([7]; trunk injection) | inhibition of the growth of Lcr ([2]; 2 mg/ml to 0.125 mg/ml in 70% ethanol) |
| --- | --- | --- | --- | --- | --- | --- | --- | --- | --- | --- | --- | --- | --- | --- | --- | --- | --- | --- |
| Cc1ccc(C(C)C)cc1O [carvacrol, reference compound] | inhibitory | more inhibitory than cinnamaldehyde | only slight inhibition | highly phytotoxic | highly phytotoxic | – | – | – | – | – | – | – | – | – | – | – | – | – |
| O=C/C=C/c1ccccc1 [cinnamaldehyde] | inhibitory | more inhibitory than geraniol | surprisingly strong inhibition | not at all phytotoxic | not at all phytotoxic | 1 | moderately phytotoxic | moderately phytotoxic | qPCR positive | remained infected | appeared unaffected | remained completely negative | completely defoliated | completely Las negative | completely defoliated | completely negative | remained completely PCR negative | – |
| CC(C)=CCC/C(C)=C/CO [geraniol, reference compound] | inhibitory | – | – | – | – | – | – | – | – | – | – | – | – | – | – | – | – | not inhibitory |
